The record followed here is patent publication US8614201B2 (Janssen Pharmaceutica NV, priority 2009, dated 2013).

Structures are written as SMILES.

The IC50 is the concentration needed to halve the response being measured. High values mean lower potency, low ones higher potency.

Sequence of Human TRPA1 (O75762 whole entry): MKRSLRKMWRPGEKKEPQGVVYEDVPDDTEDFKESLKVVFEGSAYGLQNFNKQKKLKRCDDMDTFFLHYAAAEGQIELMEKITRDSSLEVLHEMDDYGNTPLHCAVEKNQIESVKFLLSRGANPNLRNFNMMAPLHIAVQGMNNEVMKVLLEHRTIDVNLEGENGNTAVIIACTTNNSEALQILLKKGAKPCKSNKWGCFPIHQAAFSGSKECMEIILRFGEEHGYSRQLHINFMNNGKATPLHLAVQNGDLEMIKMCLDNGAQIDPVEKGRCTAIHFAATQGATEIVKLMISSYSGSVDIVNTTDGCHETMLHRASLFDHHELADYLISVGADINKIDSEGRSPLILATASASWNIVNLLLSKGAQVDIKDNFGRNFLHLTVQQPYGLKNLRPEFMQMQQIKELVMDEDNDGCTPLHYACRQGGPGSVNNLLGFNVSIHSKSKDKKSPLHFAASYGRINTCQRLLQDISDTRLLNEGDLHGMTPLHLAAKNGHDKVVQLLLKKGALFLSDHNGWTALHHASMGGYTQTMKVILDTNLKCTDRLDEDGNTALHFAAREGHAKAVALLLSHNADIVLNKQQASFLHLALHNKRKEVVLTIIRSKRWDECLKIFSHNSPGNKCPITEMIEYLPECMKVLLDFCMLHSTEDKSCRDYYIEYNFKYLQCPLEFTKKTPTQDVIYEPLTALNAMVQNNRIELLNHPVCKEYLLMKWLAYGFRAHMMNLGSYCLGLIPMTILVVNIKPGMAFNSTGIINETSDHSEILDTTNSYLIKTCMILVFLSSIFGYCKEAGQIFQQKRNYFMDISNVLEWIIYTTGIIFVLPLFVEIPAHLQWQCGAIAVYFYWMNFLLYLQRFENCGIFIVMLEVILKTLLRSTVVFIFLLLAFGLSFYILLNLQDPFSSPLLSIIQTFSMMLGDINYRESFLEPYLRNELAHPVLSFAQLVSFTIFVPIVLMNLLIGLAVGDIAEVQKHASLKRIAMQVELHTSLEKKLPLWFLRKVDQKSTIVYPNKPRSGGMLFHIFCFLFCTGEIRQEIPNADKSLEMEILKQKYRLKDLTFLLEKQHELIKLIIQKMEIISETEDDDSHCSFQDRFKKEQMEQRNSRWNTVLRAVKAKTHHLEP

For the experiment, the target named is Human TRPA1 (Homo sapiens, UniProt O75762). In words: Alternative TRPA1 Ca2+ fluorometry assay (hTRPA1/TREx-HEK293 cells, Fluo-4, FDSS 6000). Set-up: expressed in transfected cells. The conditions noted are these: Fluo-4-AM, agonist 6,11-dihydro-5H-dibenzo[b,e]azepine-10-carboxylic acid methyl ester 25 nM, procedure used for Examples 184, 190 to 192, 194 to 316. The class given is cell-based. In a few lines:
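Tetracycline-induced (50 ng/ml, 24 h) hTRPA1/TREx-HEK293 cells were loaded with Fluo-4-AM and probenecid. Compound (1% DMSO final) was added after a 12 s baseline and the Ca2+ signal followed for 14 min, then 25 nM TRPA1 agonist dibenzazepine carboxylic acid methyl ester was applied. Signal is Em540 (ex 488 nm) relative to the first baseline reading.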
Consider `NC(=O)C1CCCN(c2nc(CNC(=O)[C@@H]3CCCN3S(=O)(=O)c3ccc(F)cc3)cc(-c3ccc(C(F)(F)F)cc3)n2)C1` (stereo partly drawn) [Example 298, 1-[4-({[1-(4-Fluoro-benzenesulfonyl)-pyrrolidine-2S-carbonyl]-amino}-methyl)-6-(4-trifluoromethyl-phenyl)-pyrimidin-2-yl]-piperidine-3-carboxylic acid amide], for which the IC50 was determined as 4.68 µM.

The molecule `O=C(NCc1cc(-c2ccc(C(F)(F)F)cc2)nc(NCCC2C=Nc3ccccc32)n1)[C@@H]1CCCN1S(=O)(=O)c1ccc(F)cc1` (stereo partly drawn) [Example 299, 1-(4-Fluoro-benzenesulfonyl)-pyrrolidine-2S-carboxylic acid [2-[2-(3H-indol-3-yl)-ethylamino]-6-(4-trifluoromethyl-phenyl)-pyrimidin-4-ylmethyl]-amide] yielded an IC50 of around 1.59 µM. The molecule `O=C(NCc1cc(-c2ccc(Br)cc2)nc(N2CCN(c3ccc(F)cc3)CC2)n1)[C@@H]1CCCN1S(=O)(=O)c1ccc(F)cc1` [Example 300, 1-(4-Fluoro-benzenesulfonyl)-pyrrolidine-2S-carboxylic acid {6-(4-bromo-phenyl)-2-[4-(4-fluoro-phenyl)-piperazin-1-yl]-pyrimidin-4-ylmethyl}-amide] yielded a half-inhibitory concentration (IC50) of 2.51 µM. The figure for `NS(=O)(=O)c1ccc(CCNc2nc(CNC(=O)[C@@H]3CCCN3S(=O)(=O)c3ccc(F)cc3)cc(-c3ccc(Br)cc3)n2)cc1` [Example 301, 1-(4-Fluoro-benzenesulfonyl)-pyrrolidine-2S-carboxylic acid {6-(4-bromo-phenyl)-2-[2-(4-sulfamoyl-phenyl)-ethylamino]-pyrimidin-4-ylmethyl}-amide] is 5.62 µM; for `O=C(NCc1cc(-c2ccc(Br)cc2)nc(N2CCC[C@H]2CO)n1)[C@@H]1CCCN1S(=O)(=O)c1ccc(F)cc1` [Example 302, 1-(4-Fluoro-benzenesulfonyl)-pyrrolidine-2S-carboxylic acid [6-(4-bromo-phenyl)-2-(2S-hydroxymethyl-pyrrolidin-1-yl)-pyrimidin-4-ylmethyl]-amide] it is 8.71 µM.

Molecule `O=C(NCc1cc(-c2ccc(C(F)(F)F)cc2)nc(N2CCc3ccccc3C2)n1)[C@@H]1CCCN1S(=O)(=O)c1ccc(F)cc1` [Example 303, 1-(4-Fluoro-benzenesulfonyl)-pyrrolidine-2S-carboxylic acid [2-(3,4-dihydro-1H-isoquinolin-2-yl)-6-(4-trifluoromethyl-phenyl)-pyrimidin-4-ylmethyl]-amide] registered an IC50 of around 2.82 µM.

Consider `O=C(NCc1cc(-c2ccc(C(F)(F)F)cc2)nc(N2CCN(c3ccc(F)cc3)CC2)n1)[C@@H]1CCCN1S(=O)(=O)c1ccc(F)cc1` [Example 304, 1-(4-Fluoro-benzenesulfonyl)-pyrrolidine-2S-carboxylic acid [2-[4-(4-fluoro-phenyl)-piperazin-1-yl]-6-(4-trifluoromethyl-phenyl)-pyrimidin-4-ylmethyl]-amide], for which the IC50 amounted to 0.331 µM.

`O=C(NCc1cc(-c2ccc3c(c2)OCO3)nc(N2CCN(Cc3ccc4c(c3)OCO4)CC2)n1)[C@@H]1CCCN1S(=O)(=O)c1ccc(F)cc1` [Example 305, 1-(4-Fluoro-benzenesulfonyl)-pyrrolidine-2S-carboxylic acid [6-benzo[1,3]dioxol-5-yl-2-(4-benzo[1,3]dioxol-5-ylmethyl-piperazin-1-yl)-pyrimidin-4-ylmethyl]-amide] came in with an IC50 of around 5.89 µM.

Take `CC1CCN(c2nc(CNC(=O)[C@@H]3CCCN3S(=O)(=O)c3ccc(F)cc3)cc(-c3ccc4c(c3)OCO4)n2)CC1` [Example 306, 1-(4-Fluoro-benzenesulfonyl)-pyrrolidine-2S-carboxylic acid [6-benzo[1,3]dioxol-5-yl-2-(4-methyl-piperidin-1-yl)-pyrimidin-4-ylmethyl]-amide]: the IC50 was around 2.09 µM. The figure for `O=C(NCc1cc(-c2ccc(C(F)(F)F)cc2)nc(NC2CCc3ccccc32)n1)[C@@H]1CCCN1S(=O)(=O)c1ccc(F)cc1` (stereo partly drawn) [Example 307, 1-(4-Fluoro-benzenesulfonyl)-pyrrolidine-2S-carboxylic acid [2-(indan-1-ylamino)-6-(4-trifluoromethyl-phenyl)-pyrimidin-4-ylmethyl]-amide] is around 0.354 µM.

`CC(C)[C@@H](CO)Nc1nc(CNC(=O)[C@@H]2CCCN2S(=O)(=O)c2ccc(F)cc2)cc(-c2ccc(C(F)(F)F)cc2)n1` [Example 308, 1-(4-Fluoro-benzenesulfonyl)-pyrrolidine-2S-carboxylic acid [2-(1-hydroxymethyl-2-methyl-propylamino)-6-(4-trifluoromethyl-phenyl)-pyrimidin-4-ylmethyl]-amide] showed an IC50 of 1.78 µM. The figure for `CC(=O)c1ccc(N2CCN(c3nc(CNC(=O)[C@@H]4CCCN4S(=O)(=O)c4ccc(F)cc4)cc(-c4ccc(C(F)(F)F)cc4)n3)CC2)cc1` [Example 309, 1-(4-Fluoro-benzenesulfonyl)-pyrrolidine-2S-carboxylic acid [2-[4-(4-acetyl-phenyl)-piperazin-1-yl]-6-(4-trifluoromethyl-phenyl)-pyrimidin-4-ylmethyl]-amide] is 1.17 µM; for `CCCCNc1nc(CNC(=O)[C@@H]2CCCN2S(=O)(=O)c2ccc(F)cc2)cc(-c2ccc(C(F)(F)F)cc2)n1` [Example 310, 1-(4-Fluoro-benzenesulfonyl)-pyrrolidine-2S-carboxylic acid [2-butylamino-6-(4-trifluoromethyl-phenyl)-pyrimidin-4-ylmethyl]-amide] it is 0.407 µM; for `CC(Nc1nc(CNC(=O)[C@@H]2CCCN2S(=O)(=O)c2ccc(F)cc2)cc(-c2ccc3c(c2)OCO3)n1)c1ccccc1` (stereo partly drawn) [Example 311, 1-(4-Fluoro-benzenesulfonyl)-pyrrolidine-2S-carboxylic acid [6-benzo[1,3]dioxol-5-yl-2-(1-phenyl-ethylamino)-pyrimidin-4-ylmethyl]-amide] it is around 1.51 µM. Molecule `O=C(NCc1cc(-c2ccc(C(F)(F)F)cc2)nc(NCCc2cccnc2)n1)[C@@H]1CCCN1S(=O)(=O)c1ccc(F)cc1` [Example 312, 1-(4-Fluoro-benzenesulfonyl)-pyrrolidine-2S-carboxylic acid [2-(2-pyridin-3-yl-ethylamino)-6-(4-trifluoromethyl-phenyl)-pyrimidin-4-ylmethyl]-amide] yielded an IC50 of 0.295 µM. The figure for `CC(Nc1nc(CNC(=O)[C@@H]2CCCN2S(=O)(=O)c2ccc(F)cc2)cc(-c2ccc(C(F)(F)F)cc2)n1)c1ccccc1` (stereo partly drawn) [Example 313, 1-(4-Fluoro-benzenesulfonyl)-pyrrolidine-2S-carboxylic acid [2-(1-phenyl-ethylamino)-6-(4-trifluoromethyl-phenyl)-pyrimidin-4-ylmethyl]-amide] is around 0.489 µM; for `CN1CCN(c2nc(CNC(=O)[C@@H]3CCCN3S(=O)(=O)c3ccc(F)cc3)cc(-c3ccc(C(F)(F)F)cc3)n2)CC1` [Example 314, 1-(4-Fluoro-benzenesulfonyl)-pyrrolidine-2-carboxylic acid [2-(4-methyl-piperazin-1-yl)-6-(4-trifluoromethyl-phenyl)-pyrimidin-4-ylmethyl]-amide] it is around 1.32 µM; for `O=C(NCc1cc(-c2ccc(C(F)(F)F)cc2)nc(NCCN2CCOCC2)n1)[C@@H]1CCCN1S(=O)(=O)c1ccc(F)cc1` [Example 315, 1-(4-Fluoro-benzenesulfonyl)-pyrrolidine-2S-carboxylic acid [2-(2-morpholin-4-yl-ethylamino)-6-(4-trifluoromethyl-phenyl)-pyrimidin-4-ylmethyl]-amide] it is around 0.45 µM. The figure for `O=C(NCc1cc(-c2ccc(Br)cc2)nc(NCCN2CCOCC2)n1)[C@@H]1CCCN1S(=O)(=O)c1ccc(F)cc1` [Example 316, 1-(4-Fluoro-benzenesulfonyl)-pyrrolidine-2S-carboxylic acid [6-(4-bromo-phenyl)-2-(2-morpholin-4-yl-ethylamino)-pyrimidin-4-ylmethyl]-amide] is 1.45 µM.
